{"source": "paper PMC9030691", "about": "“Toxicokinetics of β-Amanitin in Mice and In Vitro Drug–Drug Interaction Potential” (Pharmaceutics, 2022)", "key": {"[1]": {"conditions": "LC-HRMS, cited from earlier work", "experimental": "Concentrations of β-amanitin in biological samples were evaluated following our previous methodology. The standard calibration curves for β-amanitin in mouse plasma ranged from 0.5 to 500 ng/mL and were linear, with a correlation coefficient of 0.9952. The inter- and intra-day accuracy and precision fell within the acceptance criteria (3.1–14.6% of coefficients of variation (CVs) and 92.5–115.0% of accuracy). The extraction recovery and matrix effect of this analytical method were 82.8–88.9% and 93.0–98.6%. Three freeze–thaw cycles (88.7–97.2% accuracy with CVs of 3.6–14.3%), short-term ..."}, "MATE2-K": {"molecular_target": "MATE2-K (Homo sapiens, UniProt Q86VL8)", "sequence (Q86VL8 1-566 isoform Q86VL8-3)": "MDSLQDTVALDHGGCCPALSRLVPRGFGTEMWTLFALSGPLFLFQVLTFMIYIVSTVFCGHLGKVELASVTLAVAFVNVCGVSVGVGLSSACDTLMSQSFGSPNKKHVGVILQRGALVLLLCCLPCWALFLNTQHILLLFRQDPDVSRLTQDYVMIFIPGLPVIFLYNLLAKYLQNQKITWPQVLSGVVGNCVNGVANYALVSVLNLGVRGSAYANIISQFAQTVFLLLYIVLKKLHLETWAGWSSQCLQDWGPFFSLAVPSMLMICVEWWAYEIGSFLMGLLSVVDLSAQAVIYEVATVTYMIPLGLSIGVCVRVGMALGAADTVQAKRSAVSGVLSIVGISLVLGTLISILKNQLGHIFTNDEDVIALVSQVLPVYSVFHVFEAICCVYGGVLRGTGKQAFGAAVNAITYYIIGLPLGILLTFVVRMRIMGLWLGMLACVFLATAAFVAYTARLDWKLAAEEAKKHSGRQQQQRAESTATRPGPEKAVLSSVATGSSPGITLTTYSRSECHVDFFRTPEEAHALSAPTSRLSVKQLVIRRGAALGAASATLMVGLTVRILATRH", "assay": "MATE2-K transport inhibition in HEK293-MATE2-K cells", "format": "in vitro ADME", "set-up": "host or cells: HEK293 (TransportoCells)", "conditions": "0.1 μM probe substrate, HBSS pH 7.4, β-amanitin 0.01–250 μM (methods), n = 3, read-out: IC50, MATE2-K-mediated [14C]metformin uptake", "experimental": "β-amanitin inhibition (IC50 values) of OCT1, OCT2, MATE2-K, OAT1, OAT3, Na^+/taurocholate co-transporting polypeptide (NTCP), OATP1B1, OATP1B3, P-glycoprotein (P-gp), and breast-cancer-resistant protein (BCRP) transport activities were assessed in HEK293 cells overexpressing individual transporters (TransportoCells™, Corning), LLC-PK1-P-gp (Corning), or LLC-PK1-BCRP (obtained from Dr. A.H. Schinkel, Netherlands Cancer Institute; Amsterdam, The Netherlands), as previously reported. Each incubation mixture was prepared to a final volume of 100 μL HBSS (pH 7.4) containing 0.1 μM probe substrates ([^3H]methyl-4-phenylpyridinium for OCT1 and OCT2, [^14C]metformin for MATE2-K, [^3H]p-aminohippuric acid for OAT1, [^3H]estrone-3-sulfate for OAT3, OATP1B1 and BCRP, [^3H]taurocholate for NTCP, [^3H]17-β-D-estradiol-glucuronide for OATP1B3, [^3H]digoxin for P-gp) and various concentrations of β-amanitin (0.01–250 μM), as previously described."}, "CYP2D6": {"molecular_target": "T1, CYP2D6 (Homo sapiens, UniProt P10635)", "T1 construct": "from tissue; host or cells: ultrapooled human liver microsomes", "T1 sequence (P10635 whole entry)": "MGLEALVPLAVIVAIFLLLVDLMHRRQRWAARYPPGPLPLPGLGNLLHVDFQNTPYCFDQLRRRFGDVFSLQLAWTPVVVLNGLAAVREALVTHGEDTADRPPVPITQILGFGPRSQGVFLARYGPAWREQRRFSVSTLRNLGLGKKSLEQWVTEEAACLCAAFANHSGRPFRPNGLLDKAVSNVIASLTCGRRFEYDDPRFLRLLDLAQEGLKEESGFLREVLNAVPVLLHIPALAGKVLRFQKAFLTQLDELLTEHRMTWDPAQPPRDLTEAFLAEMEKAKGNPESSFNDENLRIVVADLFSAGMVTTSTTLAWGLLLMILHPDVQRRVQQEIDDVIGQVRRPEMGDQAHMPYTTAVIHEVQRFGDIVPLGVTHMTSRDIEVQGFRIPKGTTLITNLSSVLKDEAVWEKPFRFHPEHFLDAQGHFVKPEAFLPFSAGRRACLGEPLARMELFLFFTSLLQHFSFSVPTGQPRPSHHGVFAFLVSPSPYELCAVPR", "assay": "CYP2D6 inhibition in human liver microsomes", "format": "in vitro ADME", "conditions": "ultrapooled human liver microsomes 0.2 mg/mL, 5 μM bufuralol, β-amanitin 0.1–100 μM, pH 7.4, 37 °C, 15 min, LC-MS/MS, n = 3, read-out: IC50, CYP2D6 bufuralol 1′-hydroxylase", "experimental": "(§1) β-amanitin inhibition (IC50 values) of CYP1A2, CYP2A6, CYP2B6, CYP2C8, CYP2C9, CYP2C19, CYP2D6, and CYP3A4 enzyme activities in HLMs were evaluated using LC-MS/MS and CYP substrates as previously described. Each incubation mixture was made up to a volume of 100 μL including HLMs (0.2 mg/mL), 50 mM potassium phosphate buffer (pH 7.4), 1.0 mM NADPH, 10 mM magnesium chloride, various concentrations of β-amanitin (0.1–100 μM), a cocktail of seven CYP probe substrates (50 μM phenacetin for CYP1A2, 2.5 μM coumarin for CYP2A6, 2 μM amodiaquine for CYP2C8, 10 μM diclofenac for CYP2C9, 100 μM [S]-mephenytoin for CYP2C19, 5 μM bufuralol for CYP2D6, and 2.5 μM midazolam for CYP3A4 in acetonitrile), or 50 μM bupropion for CYP2B6. The reactions were initiated with NADPH followed by incubation in a shaking water bath at 37 °C for 15 min with or without 30 min preincubation with NADPH. Reactions were stopped with 50 μL of ice-cold methanol containing ^13C2, ^15N-acetaminophen and d9-1′-hydroxybufuralol (ISs). Incubation mixtures were centrifuged at 13,000× g for 8 min at 4 °C. An aliquot (5 μL) of the supernatant from the reaction mixture was analyzed by the previous LC-MS/MS method."}, "CYP2B6": {"molecular_target": "T2, CYP2B6 (Homo sapiens, UniProt P20813)", "T2 construct": "from tissue; host or cells: ultrapooled human liver microsomes", "T2 sequence (P20813 1-491)": "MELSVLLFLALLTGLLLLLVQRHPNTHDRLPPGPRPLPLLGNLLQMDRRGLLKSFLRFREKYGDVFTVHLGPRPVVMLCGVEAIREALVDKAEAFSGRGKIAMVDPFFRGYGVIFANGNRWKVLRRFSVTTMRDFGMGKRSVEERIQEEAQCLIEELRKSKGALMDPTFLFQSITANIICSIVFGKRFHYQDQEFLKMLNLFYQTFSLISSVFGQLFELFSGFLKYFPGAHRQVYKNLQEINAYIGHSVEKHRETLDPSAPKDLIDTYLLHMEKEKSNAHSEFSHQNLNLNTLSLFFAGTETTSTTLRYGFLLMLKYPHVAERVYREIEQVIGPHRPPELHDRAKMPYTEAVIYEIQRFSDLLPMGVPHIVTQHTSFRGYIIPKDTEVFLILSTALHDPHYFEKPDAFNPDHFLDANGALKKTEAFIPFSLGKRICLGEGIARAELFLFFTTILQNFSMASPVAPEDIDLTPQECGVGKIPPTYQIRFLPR", "assay": "CYP2B6 inhibition in human liver microsomes", "format": "in vitro ADME", "conditions": "ultrapooled human liver microsomes 0.2 mg/mL, 50 μM bupropion, β-amanitin 0.1–100 μM, pH 7.4, 37 °C, 15 min, LC-MS/MS, n = 3, read-out: IC50, CYP2B6 bupropion hydroxylase", "experimental": "as §1"}, "[2]": {"conditions": "with 30 min NADPH preincubation"}}, "note": "Where two headings read alike, the source gives them in different places.", "data": [{"smiles": "CC[C@H](C)[C@@H]1NC(=O)CNC(=O)[C@@H]2Cc3c([nH]c4cc(O)ccc34)[S@+]([O-])C[C@H](NC(=O)CNC1=O)C(=O)N[C@@H](CC(=O)O)C(=O)N1C[C@H](O)C[C@H]1C(=O)N[C@@H]([C@@H](C)[C@@H](O)CO)C(=O)N2", "note": "[β-amanitin]", "values": [{"measurement": "Stability, short-term storage for 2 h on ice (accuracy)", "setting": "[1]; mouse plasma, CVs of 3.6–7.4%", "result": "94.7–97.9%"}, {"measurement": "Stability, three freeze–thaw cycles (accuracy)", "setting": "[1]; mouse plasma, CVs of 3.6–14.3%", "result": "88.7–97.2%"}, {"measurement": "Stability, long-term storage for 2 weeks at −80 °C (accuracy)", "setting": "[1]; mouse plasma, CVs of 3.7–9.1%", "result": "90.4–105.0%"}, {"measurement": "Post-preparation stability for 24 h in 4 °C autosampler (accuracy)", "setting": "[1]; processed mouse plasma samples, CVs of 6.8–7.5%", "result": "90.7–94.1%"}, {"measurement": "IC50", "setting": "MATE2-K", "result": 2.1, "unit": "µM"}, {"measurement": "IC50", "setting": "CYP2D6; [2]", "result": 71.6, "unit": "µM"}, {"measurement": "IC50", "setting": "CYP2D6; without NADPH preincubation", "result": 76.2, "unit": "µM"}, {"measurement": "IC50", "setting": "CYP2B6; [2]", "result": 34.8, "unit": "µM"}, {"measurement": "IC50", "setting": "CYP2B6; without NADPH preincubation", "result": 38, "unit": "µM"}]}]}
